For experiment [1], the system named is Mus musculus. Nature of the experiment: Inhibition of corneal neovascularization in C57 mouse dosed via implanted with pumps at 1 uL/hr for 7 days by fluorescence microscopy. It is filed as functional, organism-based.
For experiment [2], the system named is Rattus norvegicus. Put plainly: Inhibition of oxygen-induced retinal angiogenesis in Sprague-Dawley rat dosed in right eye at stage at P9 and P11 during ischemic phase that follows oxygen exposure by epifluorescent microscopy. It is filed as functional, organism-based.
For experiment [3], the system named is K562. Nature of the experiment: Inhibition of cell adhesion in human K562 cells at 0.5 uM pre-incubated for 30 mins before cell adhesion to fibronectin for 30 mins by crystal violet staining based assay. It is filed as functional.
Experiment [4] relates to Rattus norvegicus. Put plainly: Inhibition of retinal angiogenesis in newborn Sprague-Dawley rat dosed intravitreally at P1 stage and P3 by epifluorescent microscopy. It is filed as functional, organism-based.

The structures appear in SMILES notation. Calls of active or inactive are those of the source. The rule behind the calls is not given here.

`O=C(CO[C@@H]1C[C@@H](CNc2ccccn2)N(C(=O)OCc2ccccc2)C1)NC[C@H](NC(=O)c1ccccc1[N+](=O)[O-])C(=O)O`: the inhibition result in experiment [1] and in experiment [2] was “Active” throughout.

With `C#CCOC(=O)N1C[C@H](OCC(=O)NC[C@H](NS(=O)(=O)c2c(C)cc(C)cc2C)C(=O)O)C[C@H]1CNc1ccccn1`, the inhibition result in experiment [1] and in experiment [2] was “Active” in each case.

As for `CCC(C)(C)C(=O)N[C@@H](CNC(=O)CO[C@@H]1C[C@@H](CNc2ccccn2)N(C(=O)OCc2ccccc2)C1)C(=O)O`, the inhibition result in experiment [1] and in experiment [2] was “Active” in each case.

Take `CC(C)(C)C(=O)N[C@@H](CNC(=O)CO[C@@H]1C[C@@H](CNc2ccccn2)N(C(=O)OCc2ccccc2)C1)C(=O)O`: the inhibition entry in experiment [1] and in experiment [2] was “Active” each time.

On to `Cc1cc(C)c(C(=O)N[C@@H](CNC(=O)CO[C@@H]2C[C@@H](CNc3ccccn3)N(C(=O)OCc3ccccc3)C2)C(=O)O)c(C)c1`, for which the inhibition result in experiment [3], in experiment [1] and in experiment [2] was “Active” throughout.

As for `Cc1cc(C)c(S(=O)(=O)N[C@@H](CNC(=O)CO[C@@H]2C[C@@H](CNc3ccccn3)N(C(=O)CC(C)(C)C)C2)C(=O)O)c(C)c1`, the inhibition result in experiment [1] and in experiment [2] was “Active” throughout.

With `COc1cccc(OC)c1C(=O)N[C@@H](CNC(=O)CO[C@@H]1C[C@@H](CNc2ccccn2)N(C(=O)OCc2ccccc2)C1)C(=O)O`, the inhibition result in experiment [1] and in experiment [2] was “Active” throughout.

As to `Cc1cc(C)c(S(=O)(=O)N[C@@H](CNC(=O)CO[C@@H]2C[C@@H](CNc3ccccn3)N(C(=O)NC3CCCC3)C2)C(=O)O)c(C)c1`, the inhibition result in experiment [1] and in experiment [2] was “Active” each time.

As to `O=C(CO[C@@H]1C[C@@H](CNc2ccccn2)N(C(=O)OCc2ccccc2)C1)NC[C@H](NC(=O)C1CCCCC1)C(=O)O`, the inhibition entry in experiment [1] and in experiment [2] was “Active” throughout.

Consider `O=C(CO[C@@H]1C[C@@H](CNc2ccccn2)N(C(=O)OCc2ccccc2)C1)NC[C@H](NC(=O)c1ccccc1Cl)C(=O)O`, for which the inhibition entry in experiment [1] and in experiment [2] was “Active” each time.

On to `Cc1cccc(C)c1C(=O)N[C@@H](CNC(=O)CO[C@@H]1C[C@@H](CNc2ccccn2)N(C(=O)OCc2ccccc2)C1)C(=O)O`, for which the inhibition result in experiment [1] and in experiment [2] was “Active” throughout.

Take `Cc1cc(C)c(S(=O)(=O)N[C@@H](CNC(=O)CO[C@@H]2C[C@@H](CNc3ccccn3)N(C(=O)OCc3ccccc3)C2)C(=O)O)c(C)c1`: the inhibition result in experiment [4], in experiment [1] and in experiment [2] was “Active” in each case.

As to `COc1ccnc(NC[C@@H]2C[C@@H](OCC(=O)NC[C@H](NC(=O)C3(C)CCCCC3)C(=O)O)CN2C(=O)CC(C)(C)C)c1`, the inhibition entry in experiment [1] and in experiment [2] was “Active” in each case.

For `Cc1cc(C)c(S(=O)(=O)N[C@@H](CNC(=O)CO[C@@H]2C[C@@H](CNc3ccccn3)N(C(=O)OCC(C)C)C2)C(=O)O)c(C)c1`, the inhibition result in experiment [1] and in experiment [2] was “Active” each time.
